# From ChEMBL document CHEMBL1201862, “PubChem BioAssay data set” (2004)
#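 Compound exposure: 48 hours, 5 concentrations, 96-well plates. The concentration for 50% growth inhibition is given as GI50.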 Activity calls are given as the source filed them. No stated cut-off is given here; in the data, active = GI50 up to about 1.1 µM and inactive = higher.
# How the values were obtained:
# Assay in all cases: growth of human tumour cells (NCI), 48 h
# UACC-257 = system: UACC-257
# CCRF-CEM = system: CCRF-CEM
# NCI/ADR-RES = system: NCI/ADR-RES
# SK-MEL-28 = system: SK-MEL-28
# SF-268 = system: SF-268
# NCI-H522 = system: NCI-H522
# 786-0 = system: 786-0
# MCF7 = system: MCF7
# HL-60 = system: HL-60
# MOLT-4 = system: MOLT-4
# NCI-H460 = system: NCI-H460
# CAKI-1 = system: CAKI-1
# COLO 205 = system: COLO 205
# ACHN = system: ACHN
# OVCAR-8 = system: OVCAR-8
# OVCAR-5 = system: OVCAR-5
# SW-620 = system: SW-620
# SF-295 = system: SF-295
# HT-29 = system: HT-29
# RXF 393 = system: RXF 393
Compound,GI50 (UACC-257),GI50 (CCRF-CEM),GI50 (NCI/ADR-RES),GI50 (SK-MEL-28),GI50 (SF-268),GI50 (NCI-H522),GI50 (786-0),GI50 (MCF7),GI50 (HL-60),GI50 (MOLT-4),GI50 (NCI-H460),GI50 (CAKI-1),GI50 (COLO 205),GI50 (ACHN),GI50 (OVCAR-8),GI50 (OVCAR-5),GI50 (SW-620),GI50 (SF-295),GI50 (HT-29),GI50 (RXF 393)
COC(=O)CCCC(=O)NC1=C(Nc2ccccc2)C(=O)c2ccccc2C1=O,13.3 µM (inactive),22.8 µM (inactive),18.2 µM (inactive),16.7 µM (inactive),30.7 µM (inactive),16.9 µM (inactive),17.9 µM (inactive),15.4 µM (inactive),20.5 µM (inactive),16.6 µM (inactive),16.6 µM (inactive),20.1 µM (inactive),16.3 µM (inactive),19.3 µM (inactive),31.9 µM (inactive),16.8 µM (inactive),25.2 µM (inactive),17.5 µM (inactive),–,–
CCOc1ccc(-n2nnc3c(N)nc(N)nc32)cc1,> 100 µM (inactive),> 100 µM (inactive),> 100 µM (inactive),> 100 µM (inactive),–,> 100 µM (inactive),> 100 µM (inactive),> 100 µM (inactive),> 10 µM (inactive),> 100 µM (inactive),> 100 µM (inactive),> 100 µM (inactive),> 100 µM (inactive),> 100 µM (inactive),> 100 µM (inactive),> 100 µM (inactive),> 100 µM (inactive),> 100 µM (inactive),> 100 µM (inactive),–
CCN(CC)C(=O)Cn1c2c(c3ccccc31)CCCC2,> 100 µM (inactive),89.3 µM (inactive),66.4 µM (inactive),> 100 µM (inactive),> 100 µM (inactive),–,> 100 µM (inactive),> 100 µM (inactive),45.2 µM (inactive),–,> 100 µM (inactive),57 µM (inactive),> 100 µM (inactive),65.2 µM (inactive),> 100 µM (inactive),> 100 µM (inactive),> 100 µM (inactive),49.8 µM (inactive),> 100 µM (inactive),–
O=c1oc(-c2ccccc2)c(-c2ccccc2)n1-c1ccc(Br)cc1,86.9 µM (inactive),93.8 µM (inactive),–,> 100 µM (inactive),55 µM (inactive),17.2 µM (inactive),32.4 µM (inactive),> 100 µM (inactive),39.5 µM (inactive),> 100 µM (inactive),62.1 µM (inactive),> 100 µM (inactive),> 100 µM (inactive),> 100 µM (inactive),29.2 µM (inactive),> 100 µM (inactive),> 100 µM (inactive),28.1 µM (inactive),> 100 µM (inactive),36.3 µM (inactive)
Cc1cc(C)nc(NC(=S)Nc2cccc(Cl)c2)c1,> 100 µM (inactive),> 20 µM (inactive),> 100 µM (inactive),> 100 µM (inactive),> 100 µM (inactive),–,> 48.5 µM (inactive),–,> 100 µM (inactive),> 100 µM (inactive),> 45.8 µM (inactive),20.3 µM (inactive),> 80.9 µM (inactive),28.1 µM (inactive),> 100 µM (inactive),> 100 µM (inactive),> 100 µM (inactive),> 100 µM (inactive),> 83.4 µM (inactive),> 100 µM (inactive)
O=S(=O)(O)c1ccc2c(/N=N\c3ccc(F)cc3)c(O)c(S(=O)(=O)O)cc2c1,> 100 µM (inactive),> 100 µM (inactive),> 100 µM (inactive),> 100 µM (inactive),> 100 µM (inactive),> 100 µM (inactive),> 100 µM (inactive),–,< 0.01 µM (active),> 100 µM (inactive),–,> 100 µM (inactive),> 100 µM (inactive),> 100 µM (inactive),> 100 µM (inactive),> 100 µM (inactive),> 100 µM (inactive),> 100 µM (inactive),> 100 µM (inactive),> 100 µM (inactive)
